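The compound was tested at five concentrations on cells cultured in 96-well plates, with a 48-hour exposure period. The concentration for 50% growth inhibition is given as GI50. Definition used: TGI = concentration required for complete inhibition of growth.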
Legend:
Experiment in all cases: inhibition of tumour cell growth, NCI panel, 48 h
KM12 colon = system: KM12 colon
HCT-116 colon = system: HCT-116 colon
SN12C renal = system: SN12C renal
UACC-62 melanoma = system: UACC-62 melanoma
K-562 leukemia = system: K-562 leukemia
MOLT-4 leukemia = system: MOLT-4 leukemia
HCT-15 colon = system: HCT-15 colon
SF-268 CNS = system: SF-268 CNS
OVCAR-8 ovarian = system: OVCAR-8 ovarian
HL-60(TB) leukemia = system: HL-60(TB) leukemia
A498 renal = system: A498 renal
IGROV1 ovarian = system: IGROV1 ovarian
CCRF-CEM leukemia = system: CCRF-CEM leukemia
SK-MEL-28 melanoma = system: SK-MEL-28 melanoma
SK-MEL-5 melanoma = system: SK-MEL-5 melanoma
UACC-257 melanoma = system: UACC-257 melanoma
SK-MEL-2 melanoma = system: SK-MEL-2 melanoma
HCC-2998 colon = system: HCC-2998 colon
NCI/ADR-RES ovarian = system: NCI/ADR-RES ovarian
HT29 colon = system: HT29 colon
U251 CNS = system: U251 CNS
T-47D breast = system: T-47D breast
SF-295 CNS = system: SF-295 CNS
RXF 393 renal = system: RXF 393 renal
LOX IMVI melanoma = system: LOX IMVI melanoma
A549 NSCLC = system: A549 NSCLC
SK-OV-3 ovarian = system: SK-OV-3 ovarian
786-0 renal = system: 786-0 renal
NCI-H226 lung = system: NCI-H226 lung
SNB-19 CNS = system: SNB-19 CNS
NCI-H522 lung = system: NCI-H522 lung
OVCAR-4 ovarian = system: OVCAR-4 ovarian
NCI-H460 lung = system: NCI-H460 lung
EKVX NSCLC = system: EKVX NSCLC
BT-549 breast = system: BT-549 breast
MALME-3M melanoma = system: MALME-3M melanoma
OVCAR-5 ovarian = system: OVCAR-5 ovarian
ACHN renal = system: ACHN renal
NCI-H23 lung = system: NCI-H23 lung
DU-145 prostate = system: DU-145 prostate
MDA-MB-435 = system: MDA-MB-435
CAKI-1 renal = system: CAKI-1 renal
HOP-92 NSCLC = system: HOP-92 NSCLC
HS 578T breast = system: HS 578T breast
SNB-75 CNS = system: SNB-75 CNS
SR leukemia = system: SR leukemia
M14 melanoma = system: M14 melanoma
MDA-MB-231 breast = system: MDA-MB-231 breast
MCF7 breast = system: MCF7 breast
TK-10 renal = system: TK-10 renal
HOP-62 NSCLC = system: HOP-62 NSCLC
UO-31 renal = system: UO-31 renal
SF-539 CNS = system: SF-539 CNS
COLO 205 colon = system: COLO 205 colon
PC-3 prostate = system: PC-3 prostate
SW-620 colon = system: SW-620 colon
OVCAR-3 ovarian = system: OVCAR-3 ovarian
RPMI-8226 leukemia = system: RPMI-8226 leukemia

For `COc1cc2c(Oc3ccc4[nH]c(C)cc4c3F)ncnc2cc1OCCCN1CCCC1`, the GI50 (KM12 colon) was 4.33 µM, the TGI (KM12 colon) was 15.3 µM and the GI50 (HCT-116 colon) was 3.96 µM. It also gave a TGI (HCT-116 colon) of 14.7 µM, a GI50 (SN12C renal) of 3.84 µM and a TGI (SN12C renal) of 19.9 µM. It also gave a GI50 (UACC-62 melanoma) of 2.77 µM, a TGI (UACC-62 melanoma) of 6.73 µM and a GI50 (K-562 leukemia) of 2.15 µM. For the same compound, the TGI (K-562 leukemia) was 7.44 µM, the GI50 (MOLT-4 leukemia) was 2.55 µM and the TGI (MOLT-4 leukemia) was 13.8 µM. For the same compound, the GI50 (HCT-15 colon) was 3.16 µM, the TGI (HCT-15 colon) was 15.2 µM and the GI50 (SF-268 CNS) was 4.06 µM. The TGI (SF-268 CNS) was 16.6 µM, the GI50 (OVCAR-8 ovarian) was 3.88 µM and the TGI (OVCAR-8 ovarian) was 15.6 µM. The GI50 (HL-60(TB) leukemia) was 2.04 µM, the TGI (HL-60(TB) leukemia) was 4.37 µM and the GI50 (A498 renal) was 0.129 µM. It also gave a TGI (A498 renal) of 0.72 µM, a GI50 (IGROV1 ovarian) of 1.45 µM and a TGI (IGROV1 ovarian) of 14.2 µM. It also gave a GI50 (CCRF-CEM leukemia) of 3.74 µM, a TGI (CCRF-CEM leukemia) of 16.8 µM and a GI50 (SK-MEL-28 melanoma) of 2.57 µM. For the same compound, the TGI (SK-MEL-28 melanoma) was 6.68 µM, the GI50 (SK-MEL-5 melanoma) was 1.62 µM and the TGI (SK-MEL-5 melanoma) was 3.17 µM. The GI50 (UACC-257 melanoma) was 1.75 µM, the TGI (UACC-257 melanoma) was 3.53 µM and the GI50 (SK-MEL-2 melanoma) was 3.84 µM. It also gave a TGI (SK-MEL-2 melanoma) of 10.3 µM, a GI50 (HCC-2998 colon) of 3.77 µM and a TGI (HCC-2998 colon) of 11.8 µM. For the same compound, the GI50 (NCI/ADR-RES ovarian) was 9.69 µM, the TGI (NCI/ADR-RES ovarian) was 24.7 µM and the GI50 (HT29 colon) was 1.7 µM. For the same compound, the TGI (HT29 colon) was 4.09 µM, the GI50 (U251 CNS) was 1.43 µM and the TGI (U251 CNS) was 6.99 µM. For the same compound, the GI50 (T-47D breast) was 1.8 µM, the TGI (T-47D breast) was 4.72 µM and the GI50 (SF-295 CNS) was 2.81 µM. It also gave a TGI (SF-295 CNS) of 13.2 µM, a GI50 (RXF 393 renal) of 1.07 µM and a TGI (RXF 393 renal) of 3.31 µM. It also gave a GI50 (LOX IMVI melanoma) of 1.62 µM, a TGI (LOX IMVI melanoma) of 4.31 µM and a GI50 (A549 NSCLC) of 3.07 µM. For the same compound, the TGI (A549 NSCLC) was 13 µM, the GI50 (SK-OV-3 ovarian) was 5.53 µM and the TGI (SK-OV-3 ovarian) was 19 µM. For the same compound, the GI50 (786-0 renal) was 3.57 µM, the TGI (786-0 renal) was 13.3 µM and the GI50 (NCI-H226 lung) was 0.675 µM. It also gave a TGI (NCI-H226 lung) of 9.15 µM, a GI50 (SNB-19 CNS) of 6.47 µM and a TGI (SNB-19 CNS) of 22.2 µM. For the same compound, the GI50 (NCI-H522 lung) was 2.33 µM, the TGI (NCI-H522 lung) was 5.99 µM and the GI50 (OVCAR-4 ovarian) was 1.38 µM. It also gave a TGI (OVCAR-4 ovarian) of 8.99 µM, a GI50 (NCI-H460 lung) of 3.29 µM and a TGI (NCI-H460 lung) of 11.6 µM. The GI50 (EKVX NSCLC) was 6.07 µM, the TGI (EKVX NSCLC) was 22.1 µM and the GI50 (BT-549 breast) was 2.98 µM. The TGI (BT-549 breast) was 10.8 µM, the GI50 (MALME-3M melanoma) was 2.48 µM and the TGI (MALME-3M melanoma) was 7.02 µM. It also gave a GI50 (OVCAR-5 ovarian) of 4.72 µM, a TGI (OVCAR-5 ovarian) of 19.5 µM and a GI50 (ACHN renal) of 1.96 µM. For the same compound, the TGI (ACHN renal) was 14.9 µM, the GI50 (NCI-H23 lung) was 5.17 µM and the TGI (NCI-H23 lung) was 22.7 µM. It also gave a GI50 (DU-145 prostate) of 4.66 µM, a TGI (DU-145 prostate) of 16 µM and a GI50 (MDA-MB-435) of 2.75 µM. For the same compound, the TGI (MDA-MB-435) was 8.98 µM, the GI50 (CAKI-1 renal) was 2.79 µM and the TGI (CAKI-1 renal) was 13.9 µM. The GI50 (HOP-92 NSCLC) was 0.761 µM, the TGI (HOP-92 NSCLC) was 5.2 µM and the GI50 (HS 578T breast) was 1.32 µM. For the same compound, the TGI (HS 578T breast) was 6.89 µM, the GI50 (SNB-75 CNS) was 0.959 µM and the TGI (SNB-75 CNS) was 5.09 µM. The GI50 (SR leukemia) was 3.06 µM, the TGI (SR leukemia) was 15 µM and the GI50 (M14 melanoma) was 1.88 µM. For the same compound, the TGI (M14 melanoma) was 3.78 µM, the GI50 (MDA-MB-231 breast) was 2.54 µM and the TGI (MDA-MB-231 breast) was 7.58 µM. For the same compound, the GI50 (MCF7 breast) was 3.79 µM, the TGI (MCF7 breast) was 18.5 µM and the GI50 (TK-10 renal) was 1.57 µM. It also gave a TGI (TK-10 renal) of 6.98 µM, a GI50 (HOP-62 NSCLC) of 2.03 µM and a TGI (HOP-62 NSCLC) of 10.5 µM. The GI50 (UO-31 renal) was 0.544 µM, the TGI (UO-31 renal) was 5.64 µM and the GI50 (SF-539 CNS) was 0.46 µM. For the same compound, the TGI (SF-539 CNS) was 2.47 µM, the GI50 (COLO 205 colon) was 1.83 µM and the TGI (COLO 205 colon) was 3.58 µM. The GI50 (PC-3 prostate) was 4.63 µM, the TGI (PC-3 prostate) was 17.5 µM and the GI50 (SW-620 colon) was 3.77 µM. It also gave a TGI (SW-620 colon) of 14.7 µM, a GI50 (OVCAR-3 ovarian) of 2.25 µM and a TGI (OVCAR-3 ovarian) of 7.56 µM. The GI50 (RPMI-8226 leukemia) was 3.63 µM and the TGI (RPMI-8226 leukemia) was 10.7 µM.

Source: PubChem BioAssay (NCI)
